According to patent US5770410A, “Chiral synthesis with modified enzymes” (Genzyme Corporation, priority 1992, dated 1998):

Key:
Format in all cases: biochemical
[1] = molecular target: T1, Bacillus stearothermophilus lactate dehydrogenase loop exchange mutant SL1 (short loop) (Geobacillus stearothermophilus, UniProt P00344, A222G/A223G/C81T, form not given); experiment: Steady-state kinetics, NADH-dependent reduction of 2-oxo acids (A340); settings: 25° C., pH 6
T1 construct: purified; +/- FBP
Description: (§1) Each pair of overlapping oligonucleotides (20 μM of each) were subjected to 30 cycles of annealing and extension (94° C. for 1 minute, cool to 45° C. for 2 minutes, 45° C. for 1 minute, heat to 72° C. in 1 minute, 72° C. for 1 minute in 50 μl containing 0.05M KCl , 10 mM Tris pH 8.3, 1.5 mM MgCl2, 0.01% gelatin), 200 μM of each dNTP and 2.5 units TAQ DNA polymerase). The double-stranded DNA product was purified and then cut with SacII and XbaI before ligating it into the plasmid pLDHrs cut with the same enzymes. The ligated products were restricted with MluI to cleave wild-type plasmid pLDHrs.
(§2) Overnight cultures (11) were centrifuged and the packed cells were resuspended in 50 mM triethanolamine, pH 6.0. The cells were sonicated and the debris was removed by centrifugation. The protein in the supernatant was precipitated by the addition of 65% ammonium sulphate. The precipitate was spun down and resuspended in 50 mM triethanolamine, pH 6.0 and dialysed against the same buffer. After dialysis, NADH and FBP were added to the protein to final concentrations of 5 mM and 10 mM before loading onto an oxamate Sepharose column which had been pre-equilibrated with 50 mM triethanoloamine, pH 6.0, 3 mM NADH and 5 mM FBP. After washing off unbound protein with column buffer mutant LDH was eluted with 50 mM triethanolamine, pH 9.0, 0.3 M NaCl. The elutant was precipitated with 65% ammonium sulphate and then resuspended in and dialysed against 50 mM triethanolamine, pH 7.5. The protein was then loaded onto a Q-Sepharose Fast Flow column and eluted with a salt gradient. LDH eluted at a concentration of 0.25M NaCl. For the double glycine mutant enzyme, the first chromatography procedure with oxamate Sepharose was replaced by chromatography on Blue Sepharose -F3GA, otherwise the procedure was essentially the same. All proteins were judged to be greater than 98% pure from the intensity of Coomassie blue staining on an SDS Phast gel (Pharmacia). The yield of protein was usually 0.2 g/l of original broth.
(§3) Steady-state measurements were made by following the reduction in absorbance at 340 nm in the NADH/NAD^+ conversion. All assays were at 25° C. in the buffer Bis-Tris, pH 6, (20 mM), containing KC1 (50 mM) and when used fructose-1,6-bisphosphate at 5 mM. Protein concentration was determined from the absorbance at 280 nm using the value of 0.91 for 1 mg/ml protein in 1 cm path and an Mr of 33,000.
(§4) The specific substrates used in the evaluations are shown in the left column of Table 4. In Table 4, "235/6GG" denotes the mutant enzyme formed by substituting GlyGly for AlaAla at the 235-236 positions of the enzyme (Wilks et al., Biochemistry 1990, 29, 8587-8591), and "WTrs" denotes a mutant derived from the wild-type strain as shown in FIG. 1 of Wilks et al., Biochemistry 1992, 31, 7802-7806.

[2] = molecular target: T2, Bacillus stearothermophilus lactate dehydrogenase loop exchange mutant SL2 (short loop) (Geobacillus stearothermophilus, UniProt P00344, A222G/A223G/C81T, form not given); experiment: as above; settings: 25° C., pH 6
T2 construct: purified; +/- FBP
T2 sequence (P00344 whole entry C81T/A222G/A223G, form open): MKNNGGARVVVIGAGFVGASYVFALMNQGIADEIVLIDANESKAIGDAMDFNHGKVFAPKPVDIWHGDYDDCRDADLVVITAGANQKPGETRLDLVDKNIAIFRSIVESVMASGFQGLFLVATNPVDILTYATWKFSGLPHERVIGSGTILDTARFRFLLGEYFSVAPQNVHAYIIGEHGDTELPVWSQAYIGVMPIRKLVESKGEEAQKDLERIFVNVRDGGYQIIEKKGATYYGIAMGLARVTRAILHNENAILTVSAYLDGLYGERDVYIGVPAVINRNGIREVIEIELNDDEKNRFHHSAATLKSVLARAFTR
Description: as §1, §2, §3, §4

[3] = molecular target: T3, Bacillus stearothermophilus lactate dehydrogenase, wild type, SEQ ID NO: 3 (Geobacillus stearothermophilus, UniProt P00344); experiment: as above; settings: estimate, steady state kinetic measurements
T3 construct: made in house; host or cells: E. coli
T3 sequence (P00344 whole entry): as the sequence (P00344 whole entry C81T/A222G/A223G, form open) above, with T81C, G222A, G223A counted along it
Description: as §2, with “For the double glycine mutant enzyme, the first chromatography procedure with oxamate Sepharose was replaced by chromatography on Blue Sepharose -F3GA, otherwise the procedure was essentially the same. All proteins were judged to be greater than 98% pure from the intensity of Coomassie blue staining on an SDS Phast gel (Pharmacia). The yield of protein was usually 0.2 g/l of original broth.” left out
Steady-state measurements were made by following the reduction in absorbance at 340 nm in the NADH/NAD^+ conversion. […] Protein concentration was determined from the absorbance at 280 nm using the value of 0.91 for 1 mg/ml protein in 1 cm path and an Mr of 33,000. […]

[4] = molecular target: T4, Bacillus stearothermophilus lactate dehydrogenase mutant MVS/GG (MetValSer for GlnLysPro at 102-105, GlyGly for AlaAla at 235-236) (Geobacillus stearothermophilus, UniProt P00344, A222G/A223G/K87V/P88S/Q86M); experiment: Steady state kinetic measurements, reduction of 4-methyl-2-oxo-3-pentenoic acid
T4 construct: made in house; host or cells: E. coli
T4 sequence (P00344 whole entry Q86M/K87V/P88S/A222G/A223G): as the sequence (P00344 whole entry C81T/A222G/A223G, form open) above, with T81C, Q86M, K87V, P88S counted along it
Description: The mutation where alanines at 235,236 are replaced by glycines has been combined with three mutations in the mobile polypeptide loop (residues 98-112), namely […] by methionine, lysine 103 by valine and proline 105 by serine (MVS/GG).
as §3
Reduction of 4-methyl-2-oxo-3-pentenoic acid using MVS/GG (the mutant enzyme formed by substituting MetValSer for GlnLysPro at the 102-105 positions and GlyGly for AlaAla at the 235-236 positions): […]

[5] = system: Bacillus stearothermophilus lactate dehydrogenase loop exchange mutant BIG LOOP (loop SEQ ID No: 10); experiment: Steady-state kinetics, NADH-dependent reduction of 2-oxo acids (A340); settings: 25° C., pH 6
Description: as §1, §2, §3, §4

T1 sequence (P00344 whole entry C81T/A222G/A223G, form open): as the sequence (P00344 whole entry C81T/A222G/A223G, form open) above

SMILES | Km ([1]; +FBP (5 mM)) | Km ([1]; -FBP) | Km ([2]; +FBP (5 mM)) | Km ([2]; -FBP) | other results
CC(C)CC(=O)C(=O)O [KETOISO CAPROATE, α-ketoisocaproate] | 20 mM | 40 mM | 25 mM | 30 mM | –
CC(C)=CC(=O)C(=O)O [4-methyl-2-oxo-3-pentenoic acid] | – | – | – | – | turnover [3]: 0.03 S^-1; turnover [4]: 1.2 S^-1
CCCCC(=O)C(=O)O [KETO CAPROATE, α-ketocaproate] | 16 mM | 20 mM | 25 mM | 60 mM | –
CC(=O)C(=O)O [PYRUVATE, pyruvate] | 0.08 mM | – | 0.065 mM | 0.5 mM | –
O=C(O)C(=O)CCc1ccccc1 [2-OXO-4-PHENYL BUTANOATE, 2-oxo-4-phenyl butanoic acid] | 4 mM | 4 mM | 4 mM | 4 mM | Km ([5]; +FBP (5 mM)): 7 mM; kcat ([5]; +FBP (5 mM)): 1.0 s⁻¹; kcat /KM ([5]; +FBP (5 mM)): 143 M⁻¹ s⁻¹; Km ([5]; -FBP): 12 mM; kcat ([5]; -FBP): 0.1 s⁻¹; kcat ([1]; +FBP (5 mM)): 0.03 s⁻¹; kcat /KM ([1]; +FBP (5 mM)): 7.5 M⁻¹ s⁻¹; kcat ([1]; -FBP): 0.002 s⁻¹; kcat ([2]; +FBP (5 mM)): 0.2 s⁻¹; kcat /KM ([2]; +FBP (5 mM)): 50 M⁻¹ s⁻¹; kcat ([2]; -FBP): 0.01 s⁻¹; kcat /KM ([2]; -FBP): 2.5 M⁻¹ s⁻¹
